Experimental data reported in ChEMBL document CHEMBL4732227, “Discovery of a novel potent cytochrome P450 CYP4Z1 inhibitor” (Eur J Med Chem, 2021).

Legend:
[1] = biological target: T1, Cytochrome P450 4Z1 (Homo sapiens, UniProt Q86W10); assay: Inhibition of human CYP4Z1 expressed in permeabilized fission AZ3 yeast cells at 100 nM using luciferin-3FBE as substrate incubated for 3 hrs by luminescence based enzyme bag assay relative to control; assay type: cell-based
T1 sequence (Q86W10 whole entry): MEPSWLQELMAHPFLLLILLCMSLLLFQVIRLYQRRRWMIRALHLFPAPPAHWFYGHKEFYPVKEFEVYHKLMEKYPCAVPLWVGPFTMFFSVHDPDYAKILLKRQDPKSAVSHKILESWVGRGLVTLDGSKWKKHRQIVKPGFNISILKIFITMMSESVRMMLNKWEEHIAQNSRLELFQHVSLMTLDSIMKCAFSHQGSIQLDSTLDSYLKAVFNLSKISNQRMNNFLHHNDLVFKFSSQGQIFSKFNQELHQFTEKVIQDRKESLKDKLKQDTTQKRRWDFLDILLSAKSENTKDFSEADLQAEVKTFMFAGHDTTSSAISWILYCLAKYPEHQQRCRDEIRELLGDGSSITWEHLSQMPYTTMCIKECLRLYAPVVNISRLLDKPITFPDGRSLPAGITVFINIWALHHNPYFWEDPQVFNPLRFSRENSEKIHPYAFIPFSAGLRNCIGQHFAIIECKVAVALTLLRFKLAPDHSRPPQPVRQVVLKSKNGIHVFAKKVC

[2] = biological target: T1, Cytochrome P450 4Z1; assay: Inhibition of human CYP4Z1 overexpressed in human MCF7 cells at 1 uM using luciferin-3FBE as substrate incubated for 24 hrs followed by substrate addition by luminescence based assay relative to control; assay type: cell-based
[3] = biological target: T1, Cytochrome P450 4Z1; assay: Inhibition of human CYP4Z1 overexpressed in human MCF7 cells using luciferin-3FBE as substrate incubated for 24 hrs followed by substrate addition by luminescence based assay; assay type: cell-based
[4] = biological target: T1, Cytochrome P450 4Z1; assay: Inhibition of human CYP4Z1 overexpressed in human MCF7 cells using luciferin-BE as substrate incubated for 24 hrs followed by substrate addition by luminescence based assay; assay type: cell-based
[5] = biological target: T2, CYP1A2 (Homo sapiens, UniProt P05177); assay: Inhibition of human CYP1A2 at 1 uM using luciferin-ME as substrate by enzyme bag based one point inhibition assay relative to control; assay type: ADME; details: enzyme bags, probe luciferin-ME
T2 sequence (P05177 whole entry): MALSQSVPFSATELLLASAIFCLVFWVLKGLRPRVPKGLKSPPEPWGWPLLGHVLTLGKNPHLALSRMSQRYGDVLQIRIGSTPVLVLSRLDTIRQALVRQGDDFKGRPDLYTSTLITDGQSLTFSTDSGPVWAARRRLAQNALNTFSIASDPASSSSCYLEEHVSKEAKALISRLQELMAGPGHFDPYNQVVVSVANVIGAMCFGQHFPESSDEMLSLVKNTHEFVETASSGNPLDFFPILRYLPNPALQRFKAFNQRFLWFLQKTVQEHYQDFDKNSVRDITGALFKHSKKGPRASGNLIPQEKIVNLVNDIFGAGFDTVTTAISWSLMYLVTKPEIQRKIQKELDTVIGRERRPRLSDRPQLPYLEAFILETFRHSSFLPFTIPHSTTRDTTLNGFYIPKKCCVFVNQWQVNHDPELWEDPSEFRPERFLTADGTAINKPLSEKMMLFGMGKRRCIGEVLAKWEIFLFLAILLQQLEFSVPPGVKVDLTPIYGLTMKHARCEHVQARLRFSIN

[6] = biological target: CYP2C9 (Homo sapiens, UniProt P11712); assay: Inhibition of human CYP2C9 at 1 uM using luciferin-H as substrate by enzyme bag based one point inhibition assay relative to control; assay type: ADME; details: enzyme bags, probe luciferin-H
[7] = biological target: CYP2C19 (Homo sapiens, UniProt P33261); assay: Inhibition of human CYP2C19 at 1 uM using luciferin-HEGE as substrate by enzyme bag based one point inhibition assay relative to control; assay type: ADME; details: enzyme bags, probe luciferin-HEGE
[8] = biological target: CYP2D6 (Homo sapiens, UniProt P10635); assay: Inhibition of human CYP2D6 at 1 uM using luciferin-MEEGE as substrate by enzyme bag based one point inhibition assay relative to control; assay type: ADME; details: enzyme bags, probe luciferin-MEEGE
[9] = biological target: CYP2E1 (Homo sapiens, UniProt P05181); assay: Inhibition of human CYP2E1 at 1 uM using luciferin-ME as substrate by enzyme bag based one point inhibition assay relative to control; assay type: ADME; details: enzyme bags, probe luciferin-ME
[10] = biological target: CYP3A4 (Homo sapiens, UniProt P08684); assay: Inhibition of human CYP3A4 at 1 uM using luciferin-BE as substrate by enzyme bag based one point inhibition assay relative to control; assay type: ADME; details: enzyme bags, probe luciferin-BE
Chain of CYP3A4 (P08684 whole entry): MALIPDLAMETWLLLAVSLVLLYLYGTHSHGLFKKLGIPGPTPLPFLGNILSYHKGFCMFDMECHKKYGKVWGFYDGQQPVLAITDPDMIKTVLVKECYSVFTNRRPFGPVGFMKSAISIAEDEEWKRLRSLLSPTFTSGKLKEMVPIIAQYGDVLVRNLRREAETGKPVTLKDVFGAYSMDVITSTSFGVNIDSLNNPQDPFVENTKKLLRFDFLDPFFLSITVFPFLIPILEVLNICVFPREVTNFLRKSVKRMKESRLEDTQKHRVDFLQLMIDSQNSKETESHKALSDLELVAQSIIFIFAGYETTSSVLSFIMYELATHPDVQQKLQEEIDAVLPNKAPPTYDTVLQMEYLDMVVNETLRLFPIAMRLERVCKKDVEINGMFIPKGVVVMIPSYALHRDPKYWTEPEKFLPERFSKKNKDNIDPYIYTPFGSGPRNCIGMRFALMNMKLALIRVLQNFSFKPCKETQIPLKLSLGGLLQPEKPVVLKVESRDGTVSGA

Chain of CYP2C19 (P33261 whole entry): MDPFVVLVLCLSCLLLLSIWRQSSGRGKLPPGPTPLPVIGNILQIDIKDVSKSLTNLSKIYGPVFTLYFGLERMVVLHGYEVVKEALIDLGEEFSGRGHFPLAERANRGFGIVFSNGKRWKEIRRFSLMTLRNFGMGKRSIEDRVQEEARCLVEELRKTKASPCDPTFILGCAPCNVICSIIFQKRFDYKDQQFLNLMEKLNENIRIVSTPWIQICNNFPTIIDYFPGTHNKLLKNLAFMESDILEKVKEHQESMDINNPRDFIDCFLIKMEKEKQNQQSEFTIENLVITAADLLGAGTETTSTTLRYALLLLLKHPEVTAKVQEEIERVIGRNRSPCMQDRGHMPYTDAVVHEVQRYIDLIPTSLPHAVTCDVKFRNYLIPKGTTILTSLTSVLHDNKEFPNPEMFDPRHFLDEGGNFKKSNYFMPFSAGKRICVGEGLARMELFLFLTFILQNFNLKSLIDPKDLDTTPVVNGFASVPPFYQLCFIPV
Chain of CYP2E1 (P05181 whole entry): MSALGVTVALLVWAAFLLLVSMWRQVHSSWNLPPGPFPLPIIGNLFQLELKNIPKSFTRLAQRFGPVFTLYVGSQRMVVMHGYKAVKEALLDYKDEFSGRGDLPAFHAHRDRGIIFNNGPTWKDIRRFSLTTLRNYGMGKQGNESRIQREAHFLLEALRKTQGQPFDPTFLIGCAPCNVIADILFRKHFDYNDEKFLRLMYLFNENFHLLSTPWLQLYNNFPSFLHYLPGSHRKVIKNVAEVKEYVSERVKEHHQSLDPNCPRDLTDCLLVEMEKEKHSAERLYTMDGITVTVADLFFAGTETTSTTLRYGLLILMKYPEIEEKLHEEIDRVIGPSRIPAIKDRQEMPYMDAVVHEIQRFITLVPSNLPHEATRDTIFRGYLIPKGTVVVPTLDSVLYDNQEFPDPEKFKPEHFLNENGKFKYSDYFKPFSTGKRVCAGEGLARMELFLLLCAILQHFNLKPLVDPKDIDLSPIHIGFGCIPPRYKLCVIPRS
Chain of CYP2D6 (P10635 whole entry): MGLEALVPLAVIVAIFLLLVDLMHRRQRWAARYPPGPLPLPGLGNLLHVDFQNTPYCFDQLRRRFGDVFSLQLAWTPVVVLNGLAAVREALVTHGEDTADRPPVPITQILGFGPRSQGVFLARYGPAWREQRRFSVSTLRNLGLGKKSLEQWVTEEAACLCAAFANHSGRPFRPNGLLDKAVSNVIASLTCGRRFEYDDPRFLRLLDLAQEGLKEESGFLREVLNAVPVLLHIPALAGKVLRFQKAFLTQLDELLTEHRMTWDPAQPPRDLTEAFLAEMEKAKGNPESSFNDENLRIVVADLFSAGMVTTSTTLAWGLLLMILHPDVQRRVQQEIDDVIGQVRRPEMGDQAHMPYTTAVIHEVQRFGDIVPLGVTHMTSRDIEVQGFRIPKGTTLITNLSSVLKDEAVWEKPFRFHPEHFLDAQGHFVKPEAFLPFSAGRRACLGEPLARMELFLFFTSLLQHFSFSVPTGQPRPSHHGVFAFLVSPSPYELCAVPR
Chain of CYP2C9 (P11712 whole entry): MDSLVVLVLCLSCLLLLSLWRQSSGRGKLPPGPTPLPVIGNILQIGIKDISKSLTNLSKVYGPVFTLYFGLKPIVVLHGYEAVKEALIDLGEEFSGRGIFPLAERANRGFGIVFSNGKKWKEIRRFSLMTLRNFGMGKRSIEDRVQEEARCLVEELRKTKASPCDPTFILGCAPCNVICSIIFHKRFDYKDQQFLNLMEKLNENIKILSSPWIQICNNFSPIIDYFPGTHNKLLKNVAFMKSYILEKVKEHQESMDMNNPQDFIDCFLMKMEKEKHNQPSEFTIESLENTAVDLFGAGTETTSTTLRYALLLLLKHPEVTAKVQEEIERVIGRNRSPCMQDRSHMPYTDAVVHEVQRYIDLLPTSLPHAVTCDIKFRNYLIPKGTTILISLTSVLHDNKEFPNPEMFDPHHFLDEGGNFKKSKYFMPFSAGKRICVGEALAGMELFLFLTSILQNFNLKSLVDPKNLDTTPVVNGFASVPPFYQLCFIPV

| Compound | inhibition at 0.1 µM [1] [%] | inhibition at 1 µM [2] [%] | IC50 [3] [µM] | IC50 [4] [µM] | inhibition at 1 µM [5] [%] | inhibition at 1 µM [6] [%] | inhibition at 1 µM [7] [%] | inhibition at 1 µM [8] [%] | inhibition at 1 µM [9] [%] | inhibition at 1 µM [10] [%] |
| --- | --- | --- | --- | --- | --- | --- | --- | --- | --- | --- |
| CC1CCN(C(=O)c2cccc(OCC(=O)O)c2)CC1n1ccnc1 (stereo unspecified) | 13 | 22 |  |  |  |  |  |  |  |  |
| O=C(O)CCC1CCCN(C(=O)c2ccc(Cn3ccnc3)cc2)C1 (stereo unspecified) | 1 | 12 |  |  |  |  |  |  |  |  |
| c1ccc(Cn2ccnc2)cc1 | 9 | 0 | 6.7 | 5.9 |  |  |  |  |  |  |
| O=C(O)c1cccc(CNC(=O)c2ccc(-n3ccnc3)cc2)c1 | 36 | 82 | 0.063 |  | 2.7 | -0.2 | 1.4 | -5.8 | 54 | 12 |
| Cn1cnc2cc(C(=O)Nc3ccc(Oc4nn[nH]n4)cc3)ccc21 | 5 | 10 |  |  |  |  |  |  |  |  |
| O=C(O)/C=C/c1ccc(Cn2ccnc2)cc1 [OZAGREL] | 21 | 24 |  |  |  |  |  |  |  |  |
